According to EPA's ToxValDB 9.5 (doi:10.2903/j.efsa.2010.1631):

Columns and labels:
Aphidius rhopalosiphi = experiment: LR50; higher = less toxic; settings: not reported; mortality
Apis mellifera = settings: acute; duration: 48 hours; dermal; mortality
Mus musculus = settings: acute; oral; mortality
Daphnia magna = settings: chronic/long-term; duration: 21 days; reproduction
Canidae = settings: oral, Dog Other, body weight
Pimephales promelas = settings: chronic/long-term; duration: 30 days; growth
Coturnix coturnix = settings: acute; oral; mortality
Bibionidae = settings: chronic/long-term; duration: 28 days
[1] = chronic/long-term; development
Cyprinus carpio = settings: acute; duration: 96 hours; mortality
Tagia sp. = settings: acute; duration: 14 days; mortality
Anas platyrhynchos = settings: acute; oral; unspecified; mortality

CC(=O)O.CCCCCCCCCCCCN=C(N)N [Dodecylguanidine acetate]
LR50 (Aphidius rhopalosiphi): > 1800 g/ha
LD50 (Apis mellifera): > 100 µg/piece
LD50 (Mus musculus): 1350 mg/kg-day
NOEC (Daphnia magna): 0.0044 mg/L
LD50 (Rattus norvegicus; acute, oral, mortality): 851 mg/kg-day
NOEL (Rattus norvegicus; chronic, body weight): 18.6 mg/kg-day
NOAEL (Rattus norvegicus; reproduction developmental, body weight): 10 mg/kg-day
NOAEL (Canidae; chronic, duration: 1 years): 10 mg/kg-day
NOAEL (Canidae; subchronic, duration: 90 days): 10 mg/kg-day
NOEC (Pimephales promelas): 0.099 mg/L
LD50 (Coturnix coturnix): 981 mg/kg-day
NOEC (Bibionidae): 3.2 mg/L
NOEL [1]: 45 mg/kg-day
LC50 (Cyprinus carpio): 0.6 µg/mL
LC50 (Tagia sp.): 547 mg/kg
NOEC (Tagia sp.): 171 mg/kg
LD50 (Anas platyrhynchos): 857 mg/kg-day
